{"source": "BindingDB's records for doi:10.1016/j.ejmech.2014.09.084", "about": "(University of Florence, 2014)", "key": {"[1]": {"assay": "Modulatory activity at P-gp assessed as doxorubicin IC50 in human K562/DOX cells at 3 uM after 72 hrs by MTT assay (Rvb doxorubicin alone IC50 = 2.00 +/- 0.24 uM)"}, "[2]": {"assay": "Modulatory activity at P-gp assessed as doxorubicin IC50 in human K562 cells at 0.1 uM after 72 hrs by MTT assay (Rvb doxorubicin alone IC50 = 0.023 +/- 0.004 uM)"}, "[3]": {"assay": "Modulatory activity at P-gp assessed as doxorubicin IC50 in human K562/DOX cells at 0.1 uM after 72 hrs by MTT assay (Rvb doxorubicin alone IC50 = 2.00 +/- 0.24 uM)"}, "[4]": {"assay": "Modulatory activity at P-gp assessed as doxorubicin IC50 in human K562/DOX cells at 1 uM after 72 hrs by MTT assay (Rvb doxorubicin alone IC50 = 2.00 +/- 0.24 uM)"}, "[5]": {"assay": "Modulatory activity at P-gp assessed as doxorubicin IC50 in human K562 cells at 3 uM after 72 hrs by MTT assay (Rvb doxorubicin alone IC50 = 0.023 +/- 0.004 uM)"}, "[6]": {"assay": "Modulatory activity at P-gp assessed as doxorubicin IC50 in human K562 cells at 1 uM after 72 hrs by MTT assay (Rvb doxorubicin alone IC50 = 0.023 +/- 0.004 uM)"}}}
{"smiles": "COc1cc(/C=C/C(=O)OCCCCCN(C)CCCOC(=O)c2c3ccccc3cc3ccccc23)cc(OC)c1OC", "values": [{"measurement": "IC50", "setting": "[1]", "result": 35, "unit": "nM"}, {"measurement": "IC50", "setting": "[2]", "result": 30, "unit": "nM"}, {"measurement": "IC50", "setting": "[3]", "result": 300, "unit": "nM"}, {"measurement": "IC50", "setting": "[4]", "result": 60, "unit": "nM"}, {"measurement": "IC50", "setting": "[5]", "result": 18, "unit": "nM"}]}
{"smiles": "COc1cc(/C=C/C(=O)OCCCCN(C)CCCCOC(=O)c2c3ccccc3cc3ccccc23)cc(OC)c1OC", "values": [{"measurement": "IC50", "setting": "[6]", "result": 41, "unit": "nM"}, {"measurement": "IC50", "setting": "[1]", "result": 63, "unit": "nM"}, {"measurement": "IC50", "setting": "[2]", "result": 22, "unit": "nM"}, {"measurement": "IC50", "setting": "[3]", "result": 830, "unit": "nM"}, {"measurement": "IC50", "setting": "[4]", "result": 230, "unit": "nM"}, {"measurement": "IC50", "setting": "[5]", "result": 19, "unit": "nM"}]}
{"smiles": "COc1cc(/C=C/C(=O)OCCCN(C)CCCCCOC(=O)c2c3ccccc3cc3ccccc23)cc(OC)c1OC", "values": [{"measurement": "IC50", "setting": "[6]", "result": 12, "unit": "nM"}, {"measurement": "IC50", "setting": "[1]", "result": 170, "unit": "nM"}, {"measurement": "IC50", "setting": "[2]", "result": 11, "unit": "nM"}, {"measurement": "IC50", "setting": "[3]", "result": 620, "unit": "nM"}, {"measurement": "IC50", "setting": "[4]", "result": 320, "unit": "nM"}, {"measurement": "IC50", "setting": "[5]", "result": 51, "unit": "nM"}]}
